One test concerns the target CDK4/cyclin D1 (Homo sapiens, UniProt P11802). The test can be described thus: CDK4/cyclin D1 Flashplate test in 96-well format. The class given is biochemical. As for the experimental part:
2. CDK4/cyclin D1 Protocol:
Purification of the CDK4-HA/cyclin D1-(His)6 Complex by IMAC (Immobilized Metal Affinity Chromatography):
Two recombinant baculoviruses bearing the human sequences coding, respectively, for CDK4-HA (C-terminal fusion with the hemaglutinin tag) and for cyclin D1-(His)6 are used to coinfect insect Sf9 cells. Sixty hours after the start of the coinfection, the cells are harvested by centrifugation and then frozen at −20° C. until the time of use.
CDK4/cyclin D1 Flashplate Test in 96-Well Format
A test in 96-well “Flashplate” plates coated with streptavidin is used to evaluate the inhibition of the CDK4/cyclin D1 kinase complex by the products of the invention. To perform this test, the biotinylated peptide substrate, a fragment of the pRb protein (biotinyl-[…]-amide) is dissolved at a concentration of 2 mM in kinase buffer (HEPES/NaOH 50 mM, NaCl 1 mM, MgCl2 5 mM, pH 7.5) in order to constitute a stock solution stored at −20° C. in the form of 110 μl aliquots. On the day of the experiment, an aliquot of this solution is thawed and diluted in kinase buffer containing 1 mM of dithiothreitol, and added to the buffer extemporaneously, in order to obtain a final peptide concentration of 2.571 μM. 70 μl of this solution are added to each well of the Flashplate in order to obtain a final substrate concentration of 1.8 μM during the enzymatic reaction, performed in a final volume of the reaction medium of 100 μl (cf. below). Intermediate dilutions of inhibitors (products of the invention) at various concentrations are prepared in DMSO from stock solutions at 10 mM in separate tubes. 1000 μM, 333.3 μM, 111.1 μM, 37.03 μM, 12.35 μM, 4.11 μM and 1.37 μM dilutions are thus prepared. 1 μl of each of these solutions (or 1 μl of DMSO for the controls) is then transferred into the wells of the test plate. Into each well are then added 19 μl of a solution of a mixture of adenosine triphosphate (ATP) and of ATPy^33P in the kinase buffer at a concentration of 5.26 μM of ATP total and 78.9 μCi/ml of ^33P. The enzymatic reaction is triggered by addition of 10 μl per well of a solution of CDK4/cyclin D1 at 250 nM in the kinase buffer containing 1 mM of dithiothreitol (or 10 μl of kinase buffer containing 1 mM of dithiothreitol for the reaction blanks).
After addition of all the reagents, the test plate is incubated at 30° C. with orbital stirring at 650 rpm. After the incubation, the plate is washed three times with 300 μl per well of PBS (phosphate-buffered saline, pH=7.4, without calcium or magnesium, reference 10010-015, Gibco BRL). The incorporation of ^33P into the substrate peptide is quantified by scintillation counting using a Packard Topcount.NXT machine. The inhibitory activity of the products of the invention is evaluated by measuring the inhibitory concentration that allows a 50% reduction in the enzymatic activity (IC50).

The next test concerns the target T1, Aurora 2 (Homo sapiens, UniProt O14965).
T1 construct: A complete recombinant Aurora 2 enzyme, the N-terminal end of which was labeled with histidine; His tag (N); made in house; host or cells: E. coli
T1 sequence (O14965 1-403): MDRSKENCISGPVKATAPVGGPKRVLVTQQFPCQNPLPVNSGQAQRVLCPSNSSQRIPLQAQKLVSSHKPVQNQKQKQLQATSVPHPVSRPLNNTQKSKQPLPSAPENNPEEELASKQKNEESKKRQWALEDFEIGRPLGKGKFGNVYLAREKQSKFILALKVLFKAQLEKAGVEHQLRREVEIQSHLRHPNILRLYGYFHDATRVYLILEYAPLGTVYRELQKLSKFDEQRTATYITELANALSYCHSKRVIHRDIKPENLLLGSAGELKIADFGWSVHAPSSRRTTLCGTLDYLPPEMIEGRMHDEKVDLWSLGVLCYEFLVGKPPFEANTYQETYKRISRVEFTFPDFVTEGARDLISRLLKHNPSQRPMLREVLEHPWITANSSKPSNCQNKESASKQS
Nature of the test: Aurora 2 kinase radioactivity scintillation test. The format is biochemical. As for the experimental part:
The inhibitory effect of the compounds toward the kinase Aurora 2 is determined via a radioactivity scintillation test.
A complete recombinant Aurora 2 enzyme, the N-terminal end of which was labeled with histidine, was expressed in E. coli and purified to a quality close to homogeneity.
The C-terminal fragment (Q1687-H2101) of an NuMA (nuclear protein which is associated with the Mitotic Apparatus) expressed in E. coli, and the N-terminal end of which was labeled with histidine, was purified by chromatography with nickel chelate and used as substrate in the Aurora 2 kinase test.
The kinase activity of Aurora 2 is measured by scintillation on a microplate saturated with nickel chelate (New England Nuclear, SMP107 model). Each well contains 100 μl of the following solution: 0.02 μM of Aurora 2; 0.5 μM of NuMA substrate; 1 μM of ATP supplemented with 0.5 μCi of ATP-[^33P]. The solutions are incubated for 45 minutes at 37° C. The test buffer is then removed and the wells are rinsed twice with 300 μl of kinase buffer. The radioactivity is measured in each well using a Packard Model Top Count NXT machine.
The background noise is measured in duplicate in wells containing the radioactive ATP alone containing buffered kinase treated in the same manner as for the other samples.
The activity of the control is determined by measuring in duplicate the radioactivity in the complete test mixture (ATP, Aurora 2 and NuMA substrate), in the absence of test compound.
The inhibition of the activity of Aurora 2 with a compound of the invention is expressed as a percentage of inhibition of the control activity in the absence of test compound. Staurosporin is added to each plate as inhibition control.

Another test addresses CDK2/cyclin E (Homo sapiens, UniProt P24941). Nature of the test: CDK2/cyclin E Flashplate test in 96-well format. The class given is biochemical. The note with it: read-out: CDK2 IC50. As for the experimental part:
1. Protocol CDK2/cyclin E:
Purification of the CDK2/cyclin E-(His)6 Complex by IMAC (Immobilized Metal Affinity Chromatography):
Two recombinant baculoviruses bearing the human sequences coding, respectively, for CDK2 and cyclin E (the latter comprising a C-terminal hexahistidine tag) are used to coinfect insect Sf21 cells. Two to three days after the start of coinfection, the cells are harvested by centrifugation and then stored at −40° C. until the time of use. After thawing and mechanical lysis of the cells, the complex present in the lysis supernatant is purified by affinity chromatography on nickel (IMAC), and stored at −80° C.
CDK2/cyclin E Flashplate Test in 96-Well Format
A format in 96-well plates coated with streptavidin is used to test the activity of the compounds on the kinase activity of CDK2/cyclin E.
To perform this test, the biotinylated peptide substrate, a fragment of the pRb protein (biotinyl-[…]-OH) is dissolved at a concentration of 1 mM in kinase buffer (HEPES/NaOH 50 mM, NaCl 1 mM, MgCl2 5 mM, pH 7.5) in order to constitute a stock solution stored at −20° C. in the form of 110 μl aliquots. On the day of the experiment, an aliquot of this solution is thawed and diluted in kinase buffer containing 1 mM of dithiothreitol, and added to the buffer extemporaneously, in order to obtain a concentration of 14.3 μM. 70 μl of this solution are added to each well of the Flashplate in order to obtain a final substrate concentration of 10 μM during the enzymatic reaction, performed in a final volume of the reaction medium of 100 μl (cf. below).
Intermediate dilutions of inhibitors (products of the invention) at various concentrations are prepared in DMSO from stock solutions at 10 mM in separate tubes. 1000 μM, 333.3 μM, 111.1 μM, 37.03 μM, 12.35 μM, 4.11 μM and 1.37 μM dilutions are thus prepared. 1 μl of each of these solutions (or 1 μl of DMSO for the controls) is transferred into the wells of the test plate.
Into each well are then added 19 μl of a solution of a mixture of adenosine triphosphate (ATP) and of ATPy^33P in the kinase buffer at a concentration of 5.26 μM of ATP total and 52.6 μCi/ml of ^33P. The enzymatic reaction is triggered by addition of 10 μl per well of a solution of CDK2/cyclin E at 200 nM in the kinase buffer containing 1 mM of dithiothreitol (or 10 μl of kinase buffer containing 1 mM of dithiothreitol for the reaction blanks).
After addition of all the reagents, the plate is incubated at 30° C. with orbital stirring at 650 rpm.
When the incubation is complete, the plate is washed three times with 300 μl per well of PBS (phosphate-buffered saline, pH=7.4, without calcium or magnesium, reference 10010-015, Gibco BRL). The incorporation of ^33P into the peptide is quantified by scintillation counting using a Packard Topcount.NXT machine. The inhibitory activity of the products of the invention is evaluated by measuring the inhibitory concentration that allows a 50% reduction in the enzymatic activity (IC50).

A further test deals with HeLa. Nature of the test: HeLa proliferation. Conditions: Homo sapiens, read-out: HeLa proliferation EC50 (nM) DG. The format is cell-based.

Counter-ions that a name gives are not always drawn.

One may read the IC50 as the concentration needed to halve the response being measured.

Chain of CDK4/cyclin D1 (P11802 whole entry): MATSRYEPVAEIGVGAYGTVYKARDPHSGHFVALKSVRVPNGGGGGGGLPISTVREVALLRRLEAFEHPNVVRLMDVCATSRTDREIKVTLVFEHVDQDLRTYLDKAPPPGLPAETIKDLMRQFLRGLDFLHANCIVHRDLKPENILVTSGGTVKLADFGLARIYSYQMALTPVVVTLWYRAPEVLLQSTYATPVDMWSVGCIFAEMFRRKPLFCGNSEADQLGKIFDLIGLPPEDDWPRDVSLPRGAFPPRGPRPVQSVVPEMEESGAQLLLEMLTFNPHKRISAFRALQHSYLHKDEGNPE
Chain of CDK4/cyclin D1 (P24385 whole entry partner): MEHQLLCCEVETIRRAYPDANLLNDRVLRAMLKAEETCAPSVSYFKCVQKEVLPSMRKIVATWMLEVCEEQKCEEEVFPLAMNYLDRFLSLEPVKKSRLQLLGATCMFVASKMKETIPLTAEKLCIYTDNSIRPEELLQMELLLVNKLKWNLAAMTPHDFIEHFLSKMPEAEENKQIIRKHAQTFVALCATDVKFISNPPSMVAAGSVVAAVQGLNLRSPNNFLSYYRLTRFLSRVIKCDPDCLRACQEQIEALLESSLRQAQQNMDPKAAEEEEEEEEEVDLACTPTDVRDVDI

For the compound `CCN(CC)CCC(=O)Nc1nc2ccc(OS(=O)(=O)c3cccs3)cc2s1` [Example 33g, Thiophene-2-sulfonic acid 2-(3-diethyl-aminopropionylamino)benzothiazol-6-yl ester; compound with trifluoroacetic acid], the IC50 on CDK4/cyclin D1 was more than 10000 nM; at Aurora 2 it was 1900 nM; at CDK2/cyclin E, 5000 nM.
Take `O=C(CCC1CCNCC1)Nc1nc2ccc(OS(=O)(=O)c3cccs3)cc2s1` [Example 33a, Thiophene-2-sulfonic acid 2-(3-piperid-4-ylpropionylamino)benzothiazol-6-yl ester; compound with trifluoroacetic acid]: the IC50 against CDK4/cyclin D1 was more than 10000 nM; on Aurora 2, 436 nM; on CDK2/cyclin E, 3240 nM.
In the case of `CC(C)NCCNc1ccc(S(=O)(=O)Oc2ccc3nc(NC(=O)CCCCCCCN)sc3c2)cc1` [Example 21, 4-(2-isopropylaminoethylamino)benzenesulfonic acid 2-(8-aminooctanoylamino)benzothiazol-6-yl ester hydrochloride], the IC50 came to 539 nM against CDK4/cyclin D1 and 227 nM on CDK2/cyclin E. The EC50 in the test on HeLa amounted to 2460 nM.
In the case of `O=C(Nc1nc2ccc(OS(=O)(=O)c3ccc(NC4CCCC4)cc3)cc2s1)C1CC1` [Example 8, 4-cyclopentylaminobenzenesulfonic 2-(cyclo-propanecarbonylamino)benzothiazol-6-yl ester], the figures for the IC50 against CDK4/cyclin D1 and on CDK2/cyclin E were 899 nM and 86 nM, respectively. In the test with HeLa, the EC50 worked out at 631 nM.
`CC(C)NCCNc1ccc(S(=O)(=O)Oc2ccc3nc(NC(=O)CCC4CCNCC4)sc3c2)cc1` [Example 24, 4-(2-Isopropylaminoethylamino)benzenesulfonic acid 2-(3-piperid-4-ylpropionylamino)benzothiazol-6-yl ester hydrochloride]: the IC50 came to 1670 nM at CDK4/cyclin D1 and 864 nM at CDK2/cyclin E. Further, the EC50 in the test on HeLa is more than 12500 nM.
The like results for `CC(C)NCCNc1ccc(S(=O)(=O)Oc2ccc3nc(NC(=O)C4CCCC4)sc3c2)cc1` [Example 69, 4-(2-isopropylaminoethylamino)benzenesulfonic acid 2-(cyclopentanecarbonylamino)benzothiazol-6-yl ester] were, in that order, 914 nM, 299 nM and 1130 nM.
For `CC(C)N(CCNc1ccc(S(=O)(=O)Oc2ccc3nc(NC(=O)CCCCCCN)sc3c2)cc1)C(C)C` [Example 52, 4-(2-diisopropylaminoethylamino)benzenesulfonic acid 2-(7-aminoheptanoylamino)benzothiazol-6-yl ester hydrochloride], the IC50 came to 189 nM against CDK4/cyclin D1 and 112 nM at CDK2/cyclin E. Also, the EC50 in the test with HeLa was determined as 2950 nM.
The corresponding values for `CC(C)N(CCNc1ccc(S(=O)(=O)Oc2ccc3nc(NC(=O)CCc4cccnc4)sc3c2)cc1)C(C)C` [Example 62, 4-(2-diisopropylaminoethylamino)benzenesulfonic acid 2-(3-pyrid-3-ylpropionylamino)benzothiazol-6-yl ester hydrochloride] are 236 nM, 75 nM and 296 nM.
The like results for `CCCC(=O)Nc1nc2ccc(OS(=O)(=O)c3ccc(NCC(C)(C)O)cc3)cc2s1` [Example 80, 4-(2-hydroxy-2-methylpropylamino)benzene-sulfonic acid 2-butyrylaminobenzothiazol-6-yl ester hydrochloride] were, in that order, 674 nM, 57 nM and 408 nM.
